Measurements: BindingDB's records for doi:10.7270/Q29G5K5D (Cc_Pmlsc, 2007)

Molecular target: T1, Dual specificity protein phosphatase 1 (Homo sapiens, UniProt P28562)
T1 sequence (P28562 whole entry): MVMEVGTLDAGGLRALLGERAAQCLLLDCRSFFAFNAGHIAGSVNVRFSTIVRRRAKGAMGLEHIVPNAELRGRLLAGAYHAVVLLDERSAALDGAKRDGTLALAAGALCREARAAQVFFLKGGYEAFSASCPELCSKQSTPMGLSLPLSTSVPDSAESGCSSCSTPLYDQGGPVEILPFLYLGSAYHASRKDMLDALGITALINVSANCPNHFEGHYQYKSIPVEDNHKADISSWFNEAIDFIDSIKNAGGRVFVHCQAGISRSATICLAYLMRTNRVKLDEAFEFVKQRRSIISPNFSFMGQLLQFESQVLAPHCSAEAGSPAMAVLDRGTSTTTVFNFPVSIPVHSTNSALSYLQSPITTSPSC
Assay: MKP-1 phosphatase inhibitors, SAR follow-up, biochemical, in vitro (AID 579)
Details: pH 7; 23 °C

| Compound | IC50 [µM] |
| --- | --- |
| Cn1c(N)c(C(=O)COC(=O)c2cc(C(F)(F)F)nc3c(C(F)(F)F)cccc23)c(=O)n(C)c1=O [2,8-bis(trifluoromethyl)-4-quinolinecarboxylic acid [2-(4-amino-1,3-dimethyl-2,6-dioxo-5-pyrimidinyl)-2-oxoethyl] ester] | > 50 |
| Cn1c(=O)c(C(=O)COC(=O)c2cc(C3CC3)nc3ccccc23)c(N)n(Cc2ccccc2)c1=O [2-cyclopropyl-4-quinolinecarboxylic acid [2-[4-amino-1-methyl-2,6-dioxo-3-(phenylmethyl)-5-pyrimidinyl]-2-oxoethyl] ester] | > 50 |
| Cn1c(N)c(C(=O)COC(=O)c2cc(-c3ccccc3)nc3ccccc23)c(=O)n(C)c1=O [2-phenyl-4-quinolinecarboxylic acid [2-(4-amino-1,3-dimethyl-2,6-dioxo-5-pyrimidinyl)-2-oxoethyl] ester] | > 50 |
